In publication PMC7307922 (Journal of Medicinal Chemistry, 2020):
Changes are numbered by the printed parent chain.

Experiments:
hFFA3 [1] = target: T1, hFFA3 (Homo sapiens, UniProt O14843); assay: cell-based
T1 sequence (O14843 1-346): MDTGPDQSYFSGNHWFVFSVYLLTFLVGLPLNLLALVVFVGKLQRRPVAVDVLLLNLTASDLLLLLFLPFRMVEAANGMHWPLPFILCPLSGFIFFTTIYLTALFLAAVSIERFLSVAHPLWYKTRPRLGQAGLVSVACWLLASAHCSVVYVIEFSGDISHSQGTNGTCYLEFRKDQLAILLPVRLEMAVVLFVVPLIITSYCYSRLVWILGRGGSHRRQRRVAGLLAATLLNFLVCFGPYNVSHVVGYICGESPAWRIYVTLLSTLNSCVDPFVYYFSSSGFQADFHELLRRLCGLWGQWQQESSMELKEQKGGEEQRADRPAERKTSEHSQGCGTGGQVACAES
Method in brief: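 HEK293 Flp-In T-REx cells stably carrying FFA3-eYFP, expression induced overnight with doxycycline, 3000 cells/well; compounds co-incubated 1 h to inhibit 0.3 μM forskolin-induced cAMP, read with HTRF cAMP kit.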

hFFA3 Q131A = target: T2, hFFA3 Q131A (Homo sapiens, UniProt O14843, Q131A); assay: Potency at FFA3 mutant Q131A; type: cell-based
T2 sequence (O14843 1-346 Q131A): T1 sequence (O14843 1-346) with Q131A
Experimental: (§1) The previously published compound 1 was not affected by mutation of either R185A or R258A in the orthosteric binding site, and the compounds were therefore believed to be allosteric modulators. […] After the publication of the FFA1 crystal structure in complex with an allosteric agonist located in the TM region close to the intracellular site,[32] a homology model of hFFA3 was constructed using Modeller. […] Thus, additional docking of (R)-1 in this site were performed to find poses where Q131, but not R126, show a central role in binding. […] The narrow binding cavity around the core scaffold is in agreement with the restrained SAR observed for this series and the furan moiety pointing out of the binding cavity might explain the flexibility in substituents at this site (Figure 3c,d). Although Q131A impacts the potency of (R)-1 with high significance, the magnitude of the effect is lower than what would be generally expected for the removal of a hydrogen bond interaction; thus, additional studies are required to confirm the proposed binding site.

hFFA3 E112A = target: T3, hFFA3 E112A (Homo sapiens, UniProt O14843, E112A); assay: Potency at FFA3 mutant E112A; type: cell-based
T3 sequence (O14843 1-346 E112A): T1 sequence (O14843 1-346) with E112A
Experimental: as §1

hFFA3 R126A = target: T4, hFFA3 R126A (Homo sapiens, UniProt O14843, R126A); assay: Potency at FFA3 mutant R126A; type: cell-based
T4 sequence (O14843 1-346 R126A): T1 sequence (O14843 1-346) with R126A
Experimental: as §1

hFFA3 [2] = target: T1, hFFA3; assay: biochemical; conditions: for GTPγS pEC50: hFFA3, mean of ≥3 independent experiments ± standard error
Experimental: The ligands were initially screened in a human FFA3-dependent [^35S]GTPγS binding assay as this assay reflects receptor-mediated activation of Gi/o proteins and is known to generally correlate well with ligand affinity.[30] Analogues of particular interest were tested further in a cAMP inhibition assay as this is an important downstream effect of Gi-activation. […] It is furthermore performed in whole cells, is more downstream, includes G protein signal amplification, and therefore better reflects a more natural ligand–receptor response.
Membranes were isolated from Flp-In T-REx HEK293 cells treated with 100 ng/mL doxycycline to induce receptor expression. Cells were washed with ice-cold phosphate-buffered saline and removed from dishes by scraping before being centrifuged for 5 min at 4 °C, 3000 rpm. Pellets were resuspended in TE buffer (75 mM Tris–HCl, 5 mM EDTA; pH 7.5) with the addition of a protease inhibitor mixture (Roche Applied Science, West Sussex, UK). This was then homogenized with a 5 mL hand-held homogenizer and subsequently centrifuged at 1500 rpm for 5 min at 4 °C, from which the supernatant was collected and further centrifuged at 50 000 rpm for 30 min at 4 °C. The resulting pellet was resuspended in TE buffer, and the protein content was measured using a BCA protein assay kit (Pierce, Fisher Scientific, Loughborough, UK).
Reactions were initiated with the addition of [^35S]GTPγS at 50 nCi per tube; reactions were terminated after 1 h of incubation at 25 °C by rapid filtration through GF/C glass filters using a 24-well Brandel cell harvester (Alpha Biotech, Glasgow, UK). Unbound radioligand was removed from filters by washing three times with ice-cold wash buffer (50 mM Tris–HCl, pH 7.4, and 10 mM MgCl2), and [^35S]GTPγS binding was determined by liquid scintillation spectrometry.

hFFA3 [3] = target: T1, hFFA3; design: expressed in transfected cells; host or cells: Flp-In T-REx HEK293 (membranes); method as in PMID 24870406; conditions: previously characterized; cited from earlier work
[4] = efficacy relative to maximal response of propionate

Compound	EC50 (hFFA3 [1]) [nM]	reduction of potency by mutation Q131A (hFFA3 Q131A; p < 0.001) [fold]	effect of mutation E112A on potency (hFFA3 E112A)	effect of mutation R126A on potency (hFFA3 R126A)	GTPγS pEC50 (hFFA3 [2])	activity alone and with propionate (hFFA3 [3])	GTPγS Emax (hFFA3 [2]; [4])	cAMP Emax (hFFA3 [1]; [4])	cAMP pEC50 (hFFA3 [1]; hFFA3, compound alone, mean of ≥3 independent experiments ± standard error)	effect of mutation Q131A on potency (hFFA3 Q131A)
CC1=C(C(=O)Nc2ccccc2C)[C@H](c2ccco2)C2=C(CCCC2=O)N1 [(R)-1]	295	> 3	did not affect	did not affect	–	–	–	–	–	–
CC1=C(C(=O)Nc2ccccc2C)C(c2ccccc2Br)C2=C(CCCC2=O)N1 (stereo not shown) [Compound 5]	–	–	–	–	nr^e	inactive alone but to act as a PAM of propionate	–	–	–	–
propionate [Compound C3, reference compound]	–	–	did not affect	did not affect	4.97 ± 0.08	–	100	100	4.93 ± 0.10	did not affect
